In paper PMC10439028, “SGLT5 is the renal transporter for 1,5-anhydroglucitol, a major player in two rare forms of neutropenia” (Cellular and Molecular Life Sciences: CMLS, 2023):

Target: T1, hSGLT5 Gly471Glu (Homo sapiens, UniProt A0PJK1, G471E)
T1 construct: pUB83-hSGLT5-iso2 as well as the various SGLT5 mutants obtained were used to transduce HEK293T cells; expressed in transfected cells; host or cells: HEK293T, lentiviral transduction (pUB83)
T1 sequence (A0PJK1 1-596 G471E): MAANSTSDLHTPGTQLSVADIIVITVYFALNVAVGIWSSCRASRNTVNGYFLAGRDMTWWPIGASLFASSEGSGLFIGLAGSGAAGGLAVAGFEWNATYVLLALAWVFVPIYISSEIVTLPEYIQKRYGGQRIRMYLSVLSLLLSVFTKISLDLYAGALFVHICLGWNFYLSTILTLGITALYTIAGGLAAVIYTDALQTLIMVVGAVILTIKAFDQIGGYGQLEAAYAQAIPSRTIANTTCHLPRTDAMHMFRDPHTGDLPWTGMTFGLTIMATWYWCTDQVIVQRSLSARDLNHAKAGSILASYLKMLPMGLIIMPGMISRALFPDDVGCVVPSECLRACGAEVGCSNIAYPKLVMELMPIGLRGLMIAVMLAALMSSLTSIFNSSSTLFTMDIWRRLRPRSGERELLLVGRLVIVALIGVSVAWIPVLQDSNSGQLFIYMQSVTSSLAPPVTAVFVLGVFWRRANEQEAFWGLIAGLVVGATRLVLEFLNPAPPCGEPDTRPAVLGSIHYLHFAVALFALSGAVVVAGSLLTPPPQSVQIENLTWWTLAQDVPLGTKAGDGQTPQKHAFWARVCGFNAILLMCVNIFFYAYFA
Experiment: 1,5-AG uptake in HEK293T cells overexpressing SGLT5 variant Gly471Glu
Format: cell-based
Experimental: For a typical transporter experiment we proceeded as follows. […] To minimize cell loss during the various washing steps in the radioactive uptake experiments, the wells where the cells were seeded were previously coated with poly- D-lysine, which improved their adhesion to the plastic surface of the wells. For this, each well of the 24-well plates was treated with 200 µl of a 0.01% poly-L-lysine solution for 10 min, washed 3 times with 1 ml of sterilized water and left to dry for 2 h. Only then could the 24-well plates be seeded with the appropriate cell lines and cultured overnight at 37 °C in 5% CO2.
On day two, the radioactive uptake assay could be performed. The cell culture media was removed by aspiration and cells were incubated for 20 min at 37 °C and 5% CO2 with a basal medium (10 mM HEPES, pH 7.4, 1 mM CaCl2, 1 mM MgCl2, 2 mM KCl) containing 140 mM choline chloride to deplete intracellular […] ions. This was subsequently replaced with the uptake medium (basal medium + 140 mM NaCl, 25 μM cytochalasin B, 1 mg/ml BSA) containing either radioactive U-[^14C]-mannose (15,000 cpm/well) or 2-[^3H]-1,5-AG (30,000 cpm/well) and respectively, non-radioactive mannose or 1,5-AG, at the required concentration in the experiment. Importantly, when measuring the transport of mannose, the uptake media also contained 0.5 mM glucose. This resulted from the need to reduce the background transport of mannose in control HEK293T cells in order to optimize the transport assay for this sugar in our model cell lines. […]
Once the uptake medium was added to the cells, the plates were incubated at 37 °C in 5% CO2 during the required time. […] In each experiment, the transport activities were calculated after subtracting a “blank” value, corresponding to the radioactivity in the appropriate control cells (HEK293T cells that were stably or transiently transfected with one of the parent plasmids pEF6/MycHisA, pEF6HisB, pUB82 or pUB83 with no inserted cDNA) that were analyzed in parallel. […]

For `OC[C@H]1OC[C@H](O)[C@@H](O)[C@@H]1O` [1,5-AG, 1,5-anhydroglucitol], the Vmax (variant Gly471Glu) was “No transport”, the “effect of mutation on ability of SGLT5 to transport 1,5-AG” value (variant Gly471Glu) was “abolished” and the “Km for 1,5-AG” value (variant Gly471Glu (rs61741107)) was “No transport”.
